According to patent publication US9260485B2 (priority 2009, dated 2016):
Read-outs that look alike come from different tables or passages of the source. Square brackets hold non-standard residues; d marks the D form. Peptide text beside a SMILES is read from it. ξ: configuration not given here. Hica(2S) = CC(C)C[C@H](O)C(=O)O; ξLac(3-iPr) = CC(C)CC(O)C(=O)O; NMeL = CN[C@@H](CC(C)C)C(=O)O

Experiments:
[1] = test system: A549 non-small-cell lung cancer cell line; assay: In vitro cytotoxicity, SRB method; assay type: cell-based, Human
Procedure: (§1) Known cyclic hexadepsipeptides (beauvericin, enniatin H, I, and MK1688) and the compounds of Chemical Formulas 1 and 2 were evaluated for in vitro cytotoxicity against various non-multidrug-resistant human cancer cell lines and multidrug-resistant cancer cell lines using the SRB method.
(§2) Human non-small-cell lung cancer cell line (A549) ovarian cancer cell line (SK-OV-3), skin cancer cell line (SK-MEL-2), and uterine sarcoma cell line MES-SA and its multi-drug resistant subline (MES-SA/DX5) were purchased from the American Type Culture Collection (USA). Colorectal carcinoma cancer cell line (HCT-15) was provided by the National Cancer Institute (NCI). HCT15/CL02 cell lines were established from HCT15 cells by continuous and stepwise exposure of the cells to doxorubicin in the Korea Research Institute of Chemical Technology (Korea).

[2] = test system: HCT15 colorectal carcinoma cancer cell line; assay: In vitro cytotoxicity, SRB method; assay type: cell-based, Human
Procedure: as §1, §2

[3] = test system: HCT15/CL02 cell line (doxorubicin-selected from HCT15); assay: In vitro cytotoxicity, SRB method; assay type: cell-based, Human
Procedure: as §1, §2

[4] = test system: MES-SA uterine sarcoma cell line; assay: In vitro cytotoxicity, SRB method; assay type: cell-based, Human; conditions: read-out: EC50 (concentration inhibiting cell growth in vitro by 50%)
Procedure: as §1, §2

[5] = test system: MES-SA/DX5 multi-drug resistant subline; assay: In vitro cytotoxicity, SRB method; assay type: cell-based, Human
Procedure: as §1, §2

[6] = test system: SK-MEL-2 skin cancer cell line; assay: In vitro cytotoxicity, SRB method; assay type: cell-based, Human
Procedure: as §1, §2

[7] = test system: SK-OV-3 ovarian cancer cell line; assay: In vitro cytotoxicity, SRB method; assay type: cell-based, Human
Procedure: as §1, §2

[8] = test system: NCI human tumor cell line screen; conditions: cited from earlier work
[9] = test system: MDR cell lines (MES-SA/DX5 and HCT15/CL02); assay: Multidrug resistance-reversing activity, summary in words; assay type: cell-based, Human
Procedure: The cyclic pentadepsipeptides of Chemical Formulas 1 and 2 were analyzed for MDR-reversing activity by comparing inhibitory activities against multidrug-resistant cancer cell lines (MES-SA/DX5 and HCT15/CL02) with those against non-multidrug-resistant cancer cell lines (MES-SA and HCT15). In this regard, the effects of the cyclic pentadepsipeptides of Chemical Formulas 1 and 2 on paclitaxel's cytotoxicity against MDR tumor cells were measured (Table 6). […].
Therefore, the N-methyl group in the cyclic pentadepsipeptide may be a factor crucial for the expression of the MDR reversal activity. […]

[10] = test system: Bacillus cereus ATCC 13061; assay: Anti-bacterial activity, paper disc clear zone; assay type: cell-based; conditions: 0.1, 0.5, 1 and 2 mM on paper disc; 37° C., 24 hr
Procedure: (§3) Assays for antibacterial activity were performed with 3 Gram-positive (Listeria monocytogenes ATCC 14028, Staphylococcus aureus ATCC 35556 and Bacillus cereus ATCC 13061) and 3 Gram-negative bacteria (Escherichia coli ATCC 8739, Pseudomonas aeruginosa ATCC 9026 and Salmonella typhimurium ATCC 14028). Each of the compounds of Chemical Formulas 1 and 2 was dissolved in different concentrations (0.1, 0.5, 1, and 2 mM) in dimethyl sulfoxide (DMSO). The solutions were applied to a sterile paper disc (5 mm diameter), followed by evaporating the DMSO solvent. Bacteria was inoculated at a density of 1×10^7 CFU/ml on Tryptic soy agar (TSA) and then, the paper disc was placed on the bacteria-inoculated agars. After incubation at 37° C. for 24 hr, the clear zone around each disc was observed and its diameter was measured.

[11] = test system: Escherichia coli ATCC 8739; assay: Anti-bacterial activity, paper disc clear zone; assay type: cell-based; conditions: 0.1, 0.5, 1 and 2 mM on paper disc; 37° C., 24 hr
Procedure: as §3

[12] = test system: Listeria monocytogenes ATCC 14028; assay: Anti-bacterial activity, paper disc clear zone; assay type: cell-based; conditions: 0.1, 0.5, 1 and 2 mM on paper disc; 37° C., 24 hr
Procedure: as §3

[13] = test system: Pseudomonas aeruginosa ATCC 9026; assay: Anti-bacterial activity, paper disc clear zone; assay type: cell-based; conditions: 0.1, 0.5, 1 and 2 mM on paper disc; 37° C., 24 hr
Procedure: as §3

[14] = test system: Salmonella typhimurium ATCC 14028; assay: Anti-bacterial activity, paper disc clear zone; assay type: cell-based; conditions: 0.1, 0.5, 1 and 2 mM on paper disc; 37° C., 24 hr
Procedure: as §3

[15] = test system: Staphylococcus aureus ATCC 35556; assay: Anti-bacterial activity, paper disc clear zone; assay type: cell-based; conditions: 0.1, 0.5, 1 and 2 mM on paper disc; 37° C., 24 hr
Procedure: as §3

Aspergillus oryzae = assay: Anti-fungal activity, paper disc on mycelia on PDA; assay type: cell-based; conditions: 1 mM; 25° C., 48 hr
Procedure: (§4) Inhibitory activity was performed against four fungus strains (Mucor rouxii, Penicillium citrinum, Fusarium oxysporum, and Aspergillus oryzae).
(§5) Drops of 1 and 10 mM solutions of compounds of Chemical Formulas 1 and 2 in methanol were loaded onto sterile paper discs (8 mm diameter) and the methanol solvent was evaporated under a hood. The paper discs were placed on fungus mycelia grown on potato dextrose agar. After incubation at 25° C. for 48 hr, clear zones around the discs were observed and their diameters were measured. A filter treated with pure methanol was used as a negative control.

Fusarium oxysporum = assay: Anti-fungal activity, paper disc on mycelia on PDA; assay type: cell-based
Procedure: as §4, §5

Mucor rouxii = assay: Anti-fungal activity, paper disc on mycelia on PDA; assay type: cell-based
Procedure: as §4, §5

Penicillium citrinum = assay: Anti-fungal activity, paper disc on mycelia on PDA; assay type: cell-based; conditions: 1 mM; 25° C., 48 hr
Procedure: as §4, §5

[16] = read-out: EC50 (concentration inhibiting cell growth in vitro by 50%), A549
[17] = read-out: EC50 (concentration inhibiting cell growth in vitro by 50%), HCT15
[18] = read-out: EC50 (concentration inhibiting cell growth in vitro by 50%), HCT15/CL02
[19] = read-out: EC50 (concentration inhibiting cell growth in vitro by 50%), MES-SA/DX5
[20] = read-out: EC50 (concentration inhibiting cell growth in vitro by 50%), SK-MEL-2
[21] = read-out: EC50 (concentration inhibiting cell growth in vitro by 50%), SK-OV-3
[22] = Homo sapiens, HCT-15, read-out: EC50 (concentration inhibiting cell growth in vitro by 50%)

## CC[C@H](C)[C@H]1OC(=O)[C@H](C(C)C)N(C)C(=O)[C@@H](C(C)C)OC(=O)[C@H](C(C)C)N(C)C(=O)[C@@H](C(C)C)OC(=O)[C@H](C(C)C)N(C)C1=O [EN H, enniatin H]
[1]; [16]
  EC50: 1.84 ± 0.11 µM
[2]; [17]
  EC50: 16.7 ± 0.96 µM
[3]; [18]
  EC50: 17.7 ± 0.49 µM
[4]
  EC50: 12.9 ± 0.23 µM
[5]; [19]
  EC50: 14.9 ± 0.59 µM
[6]; [20]
  EC50: 1.77 ± 0.03 µM
[7]; [21]
  EC50: 1.71 ± 0.03 µM

## beauvericin
[1]; [16]
  EC50: 1.43 ± 0.16 µM
[2]; [17]
  EC50: 1.53 ± 0.09 µM
[3]; [18]
  EC50: 1.66 ± 0.08 µM
[4]
  EC50: 1.29 ± 0.02 µM
[5]; [19]
  EC50: 1.34 ± 0.03 µM
[6]; [20]
  EC50: 1.47 ± 0.09 µM
[7]; [21]
  EC50: 1.39 ± 0.09 µM

## CC(C)C[C@@H]1NC(=O)[C@H](Cc2ccccc2)NC(=O)[C@H](CC(C)C)N(C)C(=O)[C@H](C(C)C)NC(=O)[C@H](CC(C)C)OC1=O [N-Methylsansalvamide] (cyclo(FL[Hica(2S)]V[NMeL]))
[8]
  GI50: 8.3 µM

## CC(C)CC1OC(=O)[C@H](CC(C)C)NC(=O)[C@H](Cc2ccccc2)NC(=O)[C@H](C(C)C)NC(=O)[C@H](CC(C)C)NC1=O (stereo partly drawn) [Com. 1, neo-sansalvamide] (cyclo(FL[ξLac(3-iPr)]LV))
[1]; Homo sapiens, A549, read-out: EC50 (concentration inhibiting cell growth in vitro by 50%)
  EC50: 11.7 ± 0.55 µM
[2]; [22]
  EC50: 9.95 ± 1 µM
[3]; [22]
  EC50: 22.1 ± 2.45 µM
[4]; Homo sapiens
  EC50: 11.8 ± 0.13 µM
[5]; Homo sapiens, MES-SA/Dx5, read-out: EC50 (concentration inhibiting cell growth in vitro by 50%)
  EC50: 19.4 ± 1.1 µM
[6]; Homo sapiens, SK-MEL-2, read-out: EC50 (concentration inhibiting cell growth in vitro by 50%)
  EC50: 14 ± 1.32 µM
[7]; Homo sapiens, SK-OV-3, read-out: EC50 (concentration inhibiting cell growth in vitro by 50%)
  EC50: 10.4 ± 0.64 µM
[9]
  Effect on the cytotoxicity of paclitaxel against MDR cell lines: increased the cytotoxicity of paclitaxel against MDR cell lines, but only slightly
[10]
  Inhibitory activity (clear zone around disc): Neither the compound of Chemical Formula 1 nor Chemical Formula 2 showed inhibitory activity
[11]
  Inhibitory activity (clear zone around disc): Neither the compound of Chemical Formula 1 nor Chemical Formula 2 showed inhibitory activity
[12]
  Inhibitory activity (clear zone around disc): Neither the compound of Chemical Formula 1 nor Chemical Formula 2 showed inhibitory activity
[13]
  Inhibitory activity (clear zone around disc): Neither the compound of Chemical Formula 1 nor Chemical Formula 2 showed inhibitory activity
[14]
  Inhibitory activity (clear zone around disc): Neither the compound of Chemical Formula 1 nor Chemical Formula 2 showed inhibitory activity
[15]
  Inhibitory activity (clear zone around disc): Neither the compound of Chemical Formula 1 nor Chemical Formula 2 showed inhibitory activity
Aspergillus oryzae
  Inhibitory activity on mycelial growth: No inhibitory activities were detected
Fusarium oxysporum
  Antifungal test, overall result: inhibitory against Mucor rouxii, and Fusarium oxysporum, weakly
Fusarium oxysporum; 1 mM, 25° C., 48 hr
  Inhibitory activity on mycelial growth: No inhibitory activities were detected
Fusarium oxysporum; 10 mM, 25° C., 48 hr
  Clear zone / inhibitory effect on mycelium: did not produce a clear zone
Mucor rouxii
  Antifungal test, overall result: inhibitory against Mucor rouxii, and Fusarium oxysporum, weakly
Mucor rouxii; 1 mM, 25° C., 48 hr
  Inhibitory activity on mycelial growth: No inhibitory activities were detected
Mucor rouxii; 10 mM, 25° C., 48 hr
  Clear zone: no clear zones were observed
  Hyphal growth near the paper disc: hyphal growth of Mucor rouxii was reduced
Penicillium citrinum
  Inhibitory activity on mycelial growth: No inhibitory activities were detected

## CC[C@H](C)[C@H]1OC(=O)[C@H](C(C)C)N(C)C(=O)[C@@H](C(C)C)OC(=O)[C@H](C(C)C)N(C)C(=O)[C@@H]([C@@H](C)CC)OC(=O)[C@H](C(C)C)N(C)C1=O [EN I, enniatin I]
[1]; [16]
  EC50: 0.5 ± 0.04 µM
[2]; [17]
  EC50: 5.56 ± 0.22 µM
[3]; [18]
  EC50: 5.88 ± 0.21 µM
[4]
  EC50: 3.94 ± 0.03 µM
[5]; [19]
  EC50: 4.9 ± 0.27 µM
[6]; [20]
  EC50: 0.53 ± 0.06 µM
[7]; [21]
  EC50: 0.49 ± 0.03 µM
